{
  "source": "patent US6482850B2",
  "about": "“Hydrolysis-promoting hydrophobic taxane derivatives” (priority 1995, dated 2002)",
  "key": {"in vivo": {"assay": "in vivo", "conditions": "female, CDF1, mouse, plasma, intravenous, 25 mg/kg", "quoted_text": "(§2) Control mice received an equivalent concentration of Cremophor® EL and ethanol (in PBS) only. At 1, 4, 8, 24 or 48 hr after injection mice were sacrificed and blood was collected via heart puncture into 1 cc syringes containing 0.05 mL of a 0.129M Sodium citrate solution (Baxter, N.J.). Samples were centrifuged at 10,000 ×g for 3 min and plasma removed. Extraction of test materials from plasma was done by adding an equal volume of acetonitrile containing 2C12-HT, 50 μg/ml, as an internal standard, and vortexing vigorously for 30 sec. Samples were then centrifuged for 3 min at 10,000 ×g and supernatant and drug levels determined via HPLC as described previously."}, "A549 human NSCLC": {"test_system": "A549 human NSCLC", "assay": "i.p. A549 tumor, i.p. treatment, survival", "conditions": "i.p. on days 1, 3, 5, 7 & 9", "quoted_text": "Note that long-term survivors (mice that survived through day 300 after cell inoculation) were not included in mean, median, or % ILS calculations.\nSCID mice (6/group) were injected with 5×10^6 A549 human NSCLC cells i.p. (day 0)."}, "[1]": {"test_system": "MCF-7/ADR (adriamycin-resistant)", "assay": "In vitro sensitivity, sulforhodamine B cytotoxicity assay, MCF-7/ADR (Table 2)", "assay_type": "cell-based, human", "conditions": "Homo sapiens, NCI/ADR-RES; 72-hour incubation; averaged from two separate experiments"}, "[2]": {"test_system": "HT-29 human colon carcinoma cells", "assay": "In vitro sensitivity, sulforhodamine B cytotoxicity assay, HT-29 (Table 2)", "assay_type": "cell-based", "conditions": "Homo sapiens, HT-29; 72-hour incubation; averaged from two separate experiments"}, "OVCAR-3 cancer cells": {"test_system": "OVCAR-3 cancer cells", "assay": "cells", "conditions": "Homo sapiens, OVCAR-3, 72 h, read-out: GI50 ± S.D. OVCAR-3", "quoted_text": "Briefly, 96-well microtiter plates were inoculated (100 μL/well) with 5×10^3 (A549) or 7.5×10^3 (OVCAR-3) cells/well, in RPMI-1640 supplemented with 10% FBS (growth media). The plates were incubated for 24 hr at 37° C., 100% humidity and 5% CO2. At 24 hours, growth media (100 μL) was added to designated “time zero” plates. Similarly, serial dilutions of drug or vehicle (in media) were added (100 μL aliquots) to the test and vehicle control wells at twice the predetermined highest concentration. There were triplicate wells on each plate and duplicate plates (total 6 wells) for each drug concentration. The test plates were incubated as above for 72 hr. Cells (including time zero plates) were then fixed with 50 μL of 50% trichloroacetic acid (TCA) (w:v) for adherent cells or 80% TCA for suspended cells, and plates refrigerated at 4° C. for 1 hr. […] The bound stain was solubilized with 100 μL of 10 mM Tris buffer and the optical density was read spectrophotometrically at 490 nm (Microplate Reader Model 3550-UV, Bio-Rad, Hercules, Calif.). Percent growth was calculated as follows: (T-T0) / (C-T0)×100; where (T)=mean optical density of treated wells at a given drug concentration, (T0)=mean optical density of time zero wells, and (C)=mean optical density of control wells."}, "[3]": {"assay": "Pharmacokinetic, plasma levels after i.v. administration", "conditions": "25 mg/kg i.v., CDF1 female mice, 8 hours", "quoted_text": "as §2"}, "[4]": {"test_system": "OVCAR-3 human ovarian cancer", "assay": "i.p. OVCAR-3 tumor, i.p. treatment, survival", "quoted_text": "C.B-17 SCID female mice were injected i.p. with 5×10^6 OVCAR-3 human ovarian cancer cells (day 0). […] Note that long-term survivors (mice that survived through day 300 after cell inoculation) were not included in mean, median, or % ILS calculations."}, "[5]": {"test_system": "A-549 human lung carcinoma", "assay": "In vitro sensitivity, sulforhodamine B cytotoxicity assay, A-549 (Table 2)", "assay_type": "cell-based", "conditions": "Homo sapiens, A549; 72-hour incubation; averaged from two separate experiments", "procedure": "Briefly, 96-well microtiter plates were inoculated (100 μL/well) with 5×10^3 (A549) or 7.5×10^3 (OVCAR-3) cells/well, in RPMI-1640 supplemented with 10% FBS (growth media). The plates were incubated for 24 hr at 37° C., 100% humidity and 5% CO2. At 24 hours, growth media (100 μL) was added to designated “time zero” plates. Similarly, serial dilutions of drug or vehicle (in media) were added (100 μL aliquots) to the test and vehicle control wells at twice the predetermined highest concentration. […] Cells (including time zero plates) were then fixed with 50 μL of 50% trichloroacetic acid (TCA) (w:v) for adherent cells or 80% TCA for suspended cells, and plates refrigerated at 4° C. for 1 hr. […] The plates were then air-dried for 24 hr."}, "[6]": {"assay": "In vivo toxicity, i.p. x 5, non-tumor bearing mice", "conditions": "CDF1, mouse, in vivo, ip; i.p. once daily for five consecutive days; read-out: maximum tolerated i.p. dose (MTD, highest dose with no deaths)", "procedure": "(§1) A separate group (n=5) was injected with concentrations of Cremophor® EL and ethanol (in PBS) equivalent to the highest concentration of the test treatment. Mortality was recorded daily and body weights taken at least twice weekly for an observation period of 30 days."}, "CDF1 mice [7]": {"test_system": "CDF1 mice", "assay": "In vivo toxicity, i.p. x 5, non-tumor bearing mice", "conditions": "30 days observation", "procedure": "as §1"}, "A549 cancer cells": {"test_system": "A549 cancer cells", "assay": "cells", "conditions": "Homo sapiens, A549, 72 h, read-out: GI50 ± S.D. A549", "quoted_text": "Briefly, 96-well microtiter plates were inoculated (100 μL/well) with 5×10^3 (A549) or 7.5×10^3 (OVCAR-3) cells/well, in RPMI-1640 supplemented with 10% FBS (growth media). The plates were incubated for 24 hr at 37° C., 100% humidity and 5% CO2. At 24 hours, growth media (100 μL) was added to designated “time zero” plates. Similarly, serial dilutions of drug or vehicle (in media) were added (100 μL aliquots) to the test and vehicle control wells at twice the predetermined highest concentration. There were triplicate wells on each plate and duplicate plates (total 6 wells) for each drug concentration. The test plates were incubated as above for 72 hr. Cells (including time zero plates) were then fixed with 50 μL of 50% trichloroacetic acid (TCA) (w:v) for adherent cells or 80% TCA for suspended cells, and plates refrigerated at 4° C. for 1 hr. The supernatant was discarded (suspended cell plates were first centrifuged) and the wells rinsed six times with tap water and air-dried. One hundred microliters of 0.4% SRB in 1% acetic acid were added to each well and the plates were incubated under ambient (RT) conditions for 10 min. Unbound stain was removed by rinsing the wells three times with 1% acetic acid. The plates were then air-dried for 24 hr. The bound stain was solubilized with 100 μL of 10 mM Tris buffer and the optical density was read spectrophotometrically at 490 nm (Microplate Reader Model 3550-UV, Bio-Rad, Hercules, Calif.). Percent growth was calculated as follows: (T-T0) / (C-T0)×100; where (T)=mean optical density of treated wells at a given drug concentration, (T0)=mean optical density of time zero wells, and (C)=mean optical density of control wells."}, "[8]": {"test_system": "OVCAR-3 human ovarian cancer", "assay": "s.c. OVCAR-3 tumor, i.v. treatment, tumor volume (FIG. 7)", "assay_type": "in vivo, mice", "procedure": "OVCAR-3 human ovarian cancer.\nThe tumor volume (mm^3) from tumor measurement was calculated: (Length * (Width/2)^2 * π). Mice were sacrificed when the average tumor volume of the group reached 1500 mm^3."}, "[9]": {"test_system": "MCF-7 human breast carcinoma", "assay": "In vitro sensitivity, sulforhodamine B cytotoxicity assay, MCF-7 (Table 2)", "assay_type": "cell-based", "conditions": "Homo sapiens, MCF7; 72-hour incubation; averaged from two separate experiments"}, "A549 human lung cancer": {"test_system": "A549 human lung cancer", "assay": "s.c. A549 tumor, i.v. treatment, tumor volume (FIG. 8)", "assay_type": "in vivo, mice", "conditions": "i.v., independent of the dose schedule; BrC16HT 12.5-25 mg/kg, Taxol® 25 mg/kg", "description": "Mice were sacrificed when the average tumor volume of the group reached 1500 mm^3."}, "CDF1 female mice": {"test_system": "CDF1 female mice", "assay": "Acute toxicity of liposomal paclitaxel or paclitaxel derivative given intraperitoneally", "conditions": "liposomes, i.p.", "procedure": "Moreover, liposomes containing either paclitaxel or a 2′-(2-bromo) hydrophobic paclitaxel derivative (containing either a six-carbon (C-6), C-8, C-12, C-14 or C-16 acyl chain at the 2′ position) were administered, intraperitoneally in 5 doses, to SCID (severe combined inimunodeficiency) mice bearing a human ovarian cancer (OvCar 3), at a dose of 12.5 mg paclitaxel per kg or a dose of 50 mg paclitaxel derivative per kg.\nCDF1 female mice, 5 or 10 mice per group, were intraperitoneally administered either paclitaxel-, 2′-C6-paclitaxel derivative-, or 2′-C16-paclitaxel derivative-containing liposomes, in a single dose, or 5 doses, of either 12.5, 25, 50, 100, 200, 300. 400 or 500 mg of paclitaxel or paclitaxel derivative per kg of mouse body weight."}, "CDF1 mice [10]": {"test_system": "CDF1 mice", "assay": "In vivo toxicity, i.v. x 5, non-tumor bearing mice", "conditions": "30 days observation", "procedure": "as §1"}, "[11]": {"test_system": "OVCAR-3 human ovarian cancer", "assay": "i.p. OVCAR-3 tumor, i.v. treatment, survival (FIG. 6)", "assay_type": "in vivo, mice", "quoted_text": "Mice were observed daily for mortality and % ILS was calculated as described above."}, "[12]": {"assay": "High sensitivity differential scanning calorimetry on phosphocholine bilayers", "assay_type": "physicochemical", "conditions": "DMPC, DPPC and DSPC bilayers, as high as 9.1 mol % (Lipid/Drug, 10:1)", "excerpt": "High sensitivity differential scanning calorimetry (DSC) was used to examine the effect of addition of taxol and its acylated derivatives on the thermotropic phase properties of phosphocholine bilayers of saturated 1, 2-dimyristoyl-sn-glycero-3-phosphocholines (DMPC), 1,2-dipalmitoyl-sn-glycero-3-phosphocholines (DPPC), and 1,2-distearoyl-sn-glycero-3-phosphocholines (DSPC). Likewise, three acylated taxol prodrugs were varied in chain lengths from six, twelve, to sixteen carbons."}, "[13]": {"conditions": "treated days 20, 22, 24, 26 and 28 i.p., 25 mg/kg"}, "[14]": {"conditions": "treated days 20, 22, 24, 26 and 28 i.p., 25 mg/kg, long-term survivors not included"}},
  "data": [
    {"smiles": "CC(=O)O[C@H]1C(=O)[C@@]2(C)[C@H]([C@H](OC(=O)c3ccccc3)[C@]3(O)C[C@H](OC(=O)[C@H](O)[C@@H](NC(=O)c4ccccc4)c4ccccc4)C(C)=C1C3(C)C)[C@]1(OC(C)=O)CO[C@@H]1C[C@@H]2O", "note": "[Paclitaxel, reference compound]", "values": [
      {"measurement": "concentration at 1 h", "setting": "in vivo", "value": "14400 ± 4600", "unit": "ng/mL"},
      {"measurement": "concentration at 4 h", "setting": "in vivo", "value": "< 5000", "unit": "ng/mL"},
      {"measurement": "survival time of tumor-bearing mice vs. control", "setting": "A549 human NSCLC", "value": "significantly (p<0.05 vs. control) increased the survival time"},
      {"measurement": "GI50", "setting": "[1]", "value": 4.17, "unit": "µM"},
      {"measurement": "GI50", "setting": "[2]", "value": "< 1.4", "unit": "nM"},
      {"measurement": "GI50", "setting": "OVCAR-3 cancer cells", "value": "1.9 ± 0.03", "unit": "nM"},
      {"measurement": "Plasma level of paclitaxel ± SEM", "setting": "[3]", "value": "none detectable"},
      {"measurement": "long-term survivors (LTS), in words", "setting": "[4]; delayed i.p. schedule (Table 9b)", "value": "no long-term survivors were observed"},
      {"measurement": "survival of tumor-bearing mice vs. control", "setting": "[4]; early (days 1, 3, 5, 7 & 9) and delayed (days 20, 22, 24, 26 & 28) i.p. treatment schedules", "value": "significantly prolonged (p<0.05 vs. control) the survival"},
      {"measurement": "% ILS", "setting": "[4]; [13]", "value": 84, "unit": "%"},
      {"measurement": "LTS/n (mice that survived to 300 days)", "setting": "[4]; [13]", "value": "0/10"},
      {"measurement": "MST Days ± SEM (n)", "setting": "[4]; [14]", "value": "188 ± 15 (10) Days"},
      {"measurement": "Median survival time", "setting": "[4]; [14]", "value": 185, "unit": "days"},
      {"measurement": "GI50", "setting": "[5]", "value": 2.3, "unit": "nM"},
      {"measurement": "MTD at 5 days", "setting": "[6]", "value": "12.5 to 25", "unit": "mg/kg"},
      {"measurement": "Number of Mice surviving/Total", "setting": "CDF1 mice [7]; i.p. days 1 through 5, 12.5 mg/kg", "value": "20/20"},
      {"measurement": "Number of Mice surviving/Total", "setting": "CDF1 mice [7]; i.p. days 1 through 5, 25 mg/kg", "value": "10/20"},
      {"measurement": "Number of Mice surviving/Total", "setting": "CDF1 mice [7]; i.p. days 1 through 5, 37.5 mg/kg", "value": "0/10"},
      {"measurement": "Number of Mice surviving/Total", "setting": "CDF1 mice [7]; i.p. days 1 through 5, 50 mg/kg", "value": "0/25"},
      {"measurement": "GI50", "setting": "A549 cancer cells", "value": "3.3 ± 0.8", "unit": "nM"},
      {"measurement": "delaying tumor growth", "setting": "[8]; 25 mg/kg i.v. on days 1, 3, 5, 7 & 9", "value": "~59", "unit": "days"},
      {"measurement": "tumor growth vs. control", "setting": "[8]; i.v. on days 1, 3, 5, 7 & 9, BrC16HT 12.5-25 mg/kg, Taxol® 25 mg/kg", "value": "significantly (p<0.05 vs. control) inhibited the tumor growth"},
      {"measurement": "GI50", "setting": "[9]", "value": "< 1.5", "unit": "nM"},
      {"measurement": "tumor growth vs. control", "setting": "A549 human lung cancer", "value": "significantly (p <0.05 vs. control) inhibited the tumor growth"},
      {"measurement": "number of mice that died within the first 14 days post-injection/total", "setting": "CDF1 female mice; five doses of 12.5 mg/kg", "value": "0/10"},
      {"measurement": "number of mice that died within the first 14 days post-injection/total", "setting": "CDF1 female mice; five doses of 25 mg/kg", "value": "10/10"},
      {"measurement": "number of mice that died within the first 14 days post-injection/total", "setting": "CDF1 female mice; five doses of 50 mg/kg", "value": "10/10"},
      {"measurement": "number of mice that died within the first 14 days post-injection/total", "setting": "CDF1 female mice; single dose 12.5 mg/kg", "value": "0/10"},
      {"measurement": "number of mice that died within the first 14 days post-injection/total", "setting": "CDF1 female mice; single dose 25 mg/kg", "value": "0/10"},
      {"measurement": "number of mice that died within the first 14 days post-injection/total", "setting": "CDF1 female mice; single dose 50 mg/kg", "value": "0/10"},
      {"measurement": "number of mice that died within the first 14 days post-injection/total", "setting": "CDF1 female mice; single dose 100 mg/kg, 100 mg/kg", "value": "5/5"},
      {"measurement": "number of mice that died within the first 14 days post-injection/total", "setting": "CDF1 female mice; single dose 100 mg/kg, listed as paclitaxel, 100 mg/kg", "value": "all five of the mice"},
      {"measurement": "Number of Mice surviving/Total", "setting": "CDF1 mice [10]; i.v. days 1 through 5, 12.5 mg/kg", "value": "10/10"},
      {"measurement": "Number of Mice surviving/Total", "setting": "CDF1 mice [10]; i.v. days 1 through 5, 25 mg/kg", "value": "8/10"},
      {"measurement": "Number of Mice surviving/Total", "setting": "CDF1 mice [10]; i.v. days 1 through 5, 37.5 mg/kg", "value": "0/7"},
      {"measurement": "Number of Mice surviving/Total", "setting": "CDF1 mice [10]; i.v. days 1 through 5, 50 mg/kg", "value": "0/8"},
      {"measurement": "medium survival times", "setting": "[11]; 12.5 mg/kg i.v. on days 20, 22, 24, 26 & 28", "value": 170, "unit": "days"},
      {"measurement": "survival time vs. control", "setting": "[11]; 12.5 or 25 mg/kg i.v. on days 1, 3, 5, 7, 9, 42, 44, 46, 48 & 50 (FIG. 6a)", "value": "significantly (p<0.05 vs. control) increased the survival time"},
      {"measurement": "survival time vs. control", "setting": "[11]; i.v. on days 20, 22, 24, 26 & 28, BrC16HT 12.5 or 25 mg/kg, Taxol® 12.5 mg/kg (FIG. 6b)", "value": "significantly (p<0.05 vs. control) increased the survival time"},
      {"measurement": "perturbation of PC bilayers (DSC)", "setting": "[12]", "value": "little or no effect on the perturbation of all three PC bilayers"}
    ]}
  ]
}
